From patent publication US11135193B2, “Composition containing monoacetyldiacylglycerol compound as active ingredient for preventing or treating asthma” (Enzychem Lifesciences Corporation, priority 2013, dated 2021)
Like-named read-outs stand apart in the source and are kept apart here. Marks after values point to notes of the source that are not given here.

Key:
[1] = tested on: ovalbumin-induced asthma Balb/c mice; assay: Inflammatory cell count in bronchoalveolar lavage fluid, ovalbumin-induced asthma model; assay type: in vivo, mouse; conditions: BALF
Procedure: (§1) 6-week-old female SPF (specific pathogen-free) Balb/c mice (average weight: 20 g) were purchased from Samtako (Korea). The animals were sufficiently fed with solid feed (antibiotic-free, Samyang Feed Co.) and water until the start point of the experiment, and acclimated at a temperature of 22±2° C., a humidity of 55±15%, and a 12-hr light/12-hr dark cycle for 1 week, and then used in experiments. After 1 week of the acclimation period as described above, the mice were sensitized by intraperitoneal administration of a suspension of 2 mg of aluminum oxide (A8222, Sigma-Aldrich, MO, USA) and 20 μg of ovalbumin (A5503, Sigma-Aldrich) in 200 μl of phosphate buffered saline at two-week intervals. During a period from day 21 to day 23 after the first intraperitoneal administration of ovalbumin, 1% ovalbumin was inhaled into the mice for 30 minutes using an ultrasonic nebulizer (NE-U12, Omron Corp., Japan). At 24 hours after the last ovalbumin challenge, the airway hyperresponsiveness of the mice was measured, and after 48 hours, the mice were anesthetized by intraperitoneal administration of Pentobarbital (50 mg/kg, Entobal, Hanil, Korea). Then, blood was collected through the saphenous vein, and the mice were subjected to tracheostomy. Next, each of the mice was subjected to bronchoalveolar lavage with a total of 1.4 ml of PBS to collect an analytical sample. […] The drug and the sample were administered orally during a period from day 18 to day 23 after the first ovalbumin […] (FIG. 1). Seven mice were used per group.
An increase in the number of eosinophils is one of the major features of asthma. Thus, in order to measure the number of eosinophils, the following experiment was performed. The bronchoalveolar lavage fluid from each mouse was stained with trypan blue immediately after collection, and the number of total cells (excluding dead cells) was calculated using a hemocytometer.

sepsis animal model = conditions: cecal-ligation-puncture sepsis model; cited from earlier work
EL-4 cells = conditions: mouse, 24 h
Procedure: EL-4 cells that are mouse T lymphoma cells were suspended in 10% fetal bovine serum-containing RPMI medium (Gibco) at a concentration of 5×10^4 cells/ml, and 100 μl of the cell suspension was seeded into each well of a 96-well plate and cultured for 12 hours. Next, the cell culture was treated with monoacetyldiacylglycerol (MADG) compounds at the concentrations shown in Table 1 below, and was then additionally cultured for 24 hours. Next, according to the instruction provided in a CCK-8 kit (Dojindo) capable of counting cells, 10 μl of CCK-8 solution was added to the kit and allowed to react for 30 minutes to 4 hours, and then the absorbance (OD) at 570 nm was measured. In equation 1, the negative control group indicates a cell culture treated with 0.2% DMSO. […] Cell viability (%)=[(OD 570 nm value of MADC-treated group)/(OD 570 nm value of negative control group)]×100 Equation 1

[2] = tested on: serum IgE and ovalbumin-specific IgE; assay: Serum IgE and ovalbumin-specific IgE (ELISA), ovalbumin-induced asthma model; assay type: in vivo, mouse
Procedure: as §1
The blood collected through the saphenous vein was incubated at room temperature for 30 minutes, and then centrifuged (3000 rpm, 15 min) to obtain serum. For measurement of serum IgE and ovalbumin-specific IgE, ELISA was used. IgE was measured using commercially available IgE (Biolegend Ins., USA). For measurement of ovalbumin-specific IgE, in a 96-well flat bottom ELISA plate, ovalbumin was dissolved in 0.1 M NaHCO3 buffer (pH 8.3) at a concentration of 20 μg/mL and incubated at 4° C. for 16 hours. Next, PBS containing 1% bovine serum albumin (BSA) was added to suppress nonspecific reactions. The serum sample was diluted at 1:400, allowed to react at room temperature for 2 hours, and then washed with PBS containing 0.05% Tween 20. Horseradish peroxidase (HRP)-conjugated goat […] polyclonal A was diluted 4000-fold and allowed to react at room temperature for 1 hour, and then color development was performed using 3,3′5,5′-tetramethylbenzidine substrate.

[3] = tested on: ovalbumin-induced asthma Balb/c mice; assay: Histopathological examination of lung tissue (H&E, PAS staining), ovalbumin-induced asthma model; assay type: in vivo, mouse
[4] = tested on: interleukins (IL-4, IL-5 and IL-13); assay: Th2 cytokines in bronchoalveolar lavage fluid (ELISA), ovalbumin-induced asthma model; assay type: in vivo, mouse; conditions: BALF
Procedure: as §1
The production of interleukins (IL-4, IL-5 and IL-13) in the bronchoalveolar lavage fluid isolated from each mouse was measured using a commercially available enzyme-linked immunosorbent assay (ELISA) kit (R&D System, USA). The analysis of each cytokine was performed according to the manufacturer's instruction, and the absorbance at 450 nm was measured using an ELISA reader (Molecular Devices, USA).

[5] = tested on: ovalbumin-induced asthma Balb/c mice; assay: Airway hyperresponsiveness (Pehn, plethysmography) in ovalbumin-induced asthma model; assay type: in vivo, mouse
Procedure: as §1
To measure airway hyperresponsiveness that is one of the major features of asthma, one chamber plethysmography (All Medicus, Korea) was used. The degree of airway resistance was evaluated by measuring enhanced pause (Pehn). For measurement of Pehn, the basis value was measured in a normal breathing state, and then PBS was inhaled for 3 minutes using an ultrasonic nebulizer, after which the Pehn value was measured for 3 minutes.

In the case of `CCCCC/C=C\C/C=C\CCCCCCCC(=O)OC(COC(C)=O)COC(=O)CCCCCCCCCCCCCCC` (stereo not drawn) [EC-18, 1-palmitoyl-2-linoleoyl-3-acetylglycerol], the “Inflammatory cell number, Eosinophils” value ([1]; 30 mg/kg oral) is reported as 93 ± 16.4* 10^5 per mouse, the “Inflammatory cell number, Lymphocytes” value ([1]; 30 mg/kg oral) is reported as 16 ± 8.7 10^5 per mouse and the “Inflammatory cell number, Macrophages” value ([1]; 30 mg/kg oral) is reported as 82 ± 25.5* 10^5 per mouse. The “Inflammatory cell number, Neutrophils” value ([1]; 30 mg/kg oral) was 15 ± 8.4 10^5 per mouse, the “Inflammatory cell number, Total cells” value ([1]; 30 mg/kg oral) was 221 ± 33.5* 10^5 per mouse and the “Inflammatory cell number, Eosinophils” value ([1]; 60 mg/kg oral) was 112 ± 18.7* 10^5 per mouse. The “Inflammatory cell number, Lymphocytes” value ([1]; 60 mg/kg oral) was 13 ± 8.7 10^5 per mouse, the “Inflammatory cell number, Macrophages” value ([1]; 60 mg/kg oral) was 113 ± 27.4 10^5 per mouse and the “Inflammatory cell number, Neutrophils” value ([1]; 60 mg/kg oral) was 12 ± 6.7 10^5 per mouse. For the same compound, the “Inflammatory cell number, Total cells” value ([1]; 60 mg/kg oral) was 253 ± 12.8* 10^5 per mouse, the “number of eosinophils compared to asthma-induced group” value ([1]; groups administered with EC-18) was “decrease” and the “number of total inflammatory cells compared to asthma-induced group” value ([1]; groups administered with EC-18) was “significant decrease”. For the same compound, the “survivability ratio of animals” value (sepsis animal model) was “Increases”, the “EL-4 cell viability (%, mean ± SD)” value (EL-4 cells; 5 μg/ml) was 101.94 ± 1.47% and the “EL-4 cell viability (%, mean ± SD)” value (EL-4 cells; 10 μg/ml) was 97.54 ± 8.05%. For the same compound, the “EL-4 cell viability (%, mean ± SD)” value (EL-4 cells; 20 μg/ml) was 91.82 ± 3.48%, the “EL-4 cell viability (%, mean ± SD)” value (EL-4 cells; 50 μg/ml) was 92.67 ± 3.43% and the “EL-4 cell viability (%, mean ± SD)” value (EL-4 cells; 100 μg/ml) was 95.29 ± 2.89%. The “EL-4 cell viability (%, mean ± SD)” value (EL-4 cells; 200 μg/ml) was 99.74 ± 6.14%, the “ovalbumin-specific IgE compared to asthma-induced group” value [2] was “significantly decreased” and the “serum IgE compared to asthma-induced group” value [2] was “significantly decreased”. For the same compound, the IgE ([2]; 30 mg/kg oral) was 2.35 ± 0.38 µg/mL, the “OVA specific IgE” value ([2]; 30 mg/kg oral) was 295.36 ± 77.93 µg/mL and the IgE ([2]; 60 mg/kg oral) was 2.27 ± 0.46 µg/mL. For the same compound, the “OVA specific IgE” value ([2]; 60 mg/kg oral) was 287.79 ± 69.53 µg/mL, the “infiltration of inflammatory cells around the bronchi and blood vessels” value ([3]; H&E staining) was “decrease” and the “mucus secretion from goblet cells of the bronchial epithelium” value ([3]; PAS staining) was “significantly decreased”. For the same compound, the “secretion of IL-4 compared to asthma-induced group” value [4] was “significantly decreased”, the “secretion of IL-5 compared to asthma-induced group” value [4] was “significantly decreased” and the “secretion of IL-13 compared to asthma-induced group” value [4] was “significantly decreased”. For the same compound, the “Th2 cytokines, IL-4” value ([4]; 30 mg/kg oral) was 17.89 ± 3.46 pg/mL, the “Th2 cytokines, IL-5” value ([4]; 30 mg/kg oral) was 24.12 ± 3.07 pg/mL and the “Th2 cytokines, IL-13” value ([4]; 30 mg/kg oral) was 97.27 ± 12.80 pg/mL. For the same compound, the “Th2 cytokines, IL-4” value ([4]; 60 mg/kg oral) was 17.09 ± 3.08 pg/mL, the “Th2 cytokines, IL-5” value ([4]; 60 mg/kg oral) was 25.02 ± 2.91 pg/mL and the “Th2 cytokines, IL-13” value ([4]; 60 mg/kg oral) was 81.10 ± 20.46 pg/mL. For the same compound, the Pehn value ([5]; methacholine 0 mg/mL, 30 mg/kg oral) was 0.465 ± 0.08, the Pehn value ([5]; methacholine 0 mg/mL, 60 mg/kg oral) was 0.436 ± 0.08 and the Pehn value ([5]; methacholine 12.5 mg/mL, 30 mg/kg oral) was 1.179 ± 0.49. It also gave a Pehn value ([5]; methacholine 12.5 mg/mL, 60 mg/kg oral) of 0.778 ± 0.15, a Pehn value ([5]; methacholine 25 mg/mL, 30 mg/kg oral) of 2.914 ± 0.67 and a Pehn value ([5]; methacholine 25 mg/mL, 60 mg/kg oral) of 2.436 ± 0.68. For the same compound, the Pehn value ([5]; methacholine 50 mg/mL, 30 mg/kg oral) was 4.098 ± 0.78, the Pehn value ([5]; methacholine 50 mg/mL, 60 mg/kg oral) was 3.887 ± 0.59 and the “airway hyperresponsiveness / Pehn value compared to asthma-induced group” value ([5]; montelukast 30 mg/kg, EC-18 30 mg/kg and 60 mg/kg) was “significantly decreased”.
